Test results from the NIST ThermoML archive (doi:10.1016/j.fluid.2011.12.029).
± gives the expanded uncertainty stated by the source.

Conditions: Liquid, Vibrating tube method

Question: What does the source list for CCCCCCCC[n+]1cccc(C)c1.F[B-](F)(F)F [N-octyl-3-methylpyridinium tetrafluoroborate]?
Answer: mass density (283.15 K, 100 kPa): 1106.25 ± 1.1 kg/m3; mass density (283.15 K, 5000 kPa): 1108.56 ± 1.1 kg/m3; mass density (283.15 K, 10000 kPa): 1110.95 ± 1.1 kg/m3; mass density (283.15 K, 15000 kPa): 1113.26 ± 1.1 kg/m3; mass density (283.15 K, 20000 kPa): 1115.53 ± 1.2 kg/m3; mass density (283.15 K, 25000 kPa): 1117.71 ± 1.2 kg/m3; mass density (283.15 K, 30000 kPa): 1119.8 ± 1.2 kg/m3; mass density (283.15 K, 35000 kPa): 1121.93 ± 1.3 kg/m3; mass density (283.15 K, 40000 kPa): 1123.9 ± 1.3 kg/m3; mass density (283.15 K, 45000 kPa): 1125.95 ± 1.3 kg/m3; mass density (283.15 K, 50000 kPa): 1127.8 ± 1.4 kg/m3; mass density (283.15 K, 55000 kPa): 1129.77 ± 1.4 kg/m3; mass density (283.15 K, 60000 kPa): 1131.58 ± 1.4 kg/m3; mass density (283.15 K, 65000 kPa): 1133.37 ± 1.5 kg/m3; mass density (288.15 K, 100 kPa): 1102.88 ± 1.1 kg/m3; mass density (288.15 K, 5000 kPa): 1105.22 ± 1.1 kg/m3; mass density (288.15 K, 10000 kPa): 1107.61 ± 1.1 kg/m3; mass density (288.15 K, 15000 kPa): 1109.98 ± 1.1 kg/m3; mass density (288.15 K, 20000 kPa): 1112.32 ± 1.2 kg/m3; mass density (288.15 K, 25000 kPa): 1114.52 ± 1.2 kg/m3; mass density (288.15 K, 30000 kPa): 1116.64 ± 1.2 kg/m3; mass density (288.15 K, 35000 kPa): 1118.71 ± 1.2 kg/m3; mass density (288.15 K, 40000 kPa): 1120.76 ± 1.3 kg/m3; mass density (288.15 K, 45000 kPa): 1122.74 ± 1.3 kg/m3; mass density (288.15 K, 50000 kPa): 1124.72 ± 1.3 kg/m3; mass density (288.15 K, 55000 kPa): 1126.63 ± 1.4 kg/m3; mass density (288.15 K, 60000 kPa): 1128.51 ± 1.4 kg/m3; mass density (288.15 K, 65000 kPa): 1130.3 ± 1.4 kg/m3; mass density (293.15 K, 100 kPa): 1099.53 ± 1.1 kg/m3; mass density (293.15 K, 5000 kPa): 1102.06 ± 1.1 kg/m3; mass density (293.15 K, 10000 kPa): 1104.51 ± 1.1 kg/m3; mass density (293.15 K, 15000 kPa): 1106.86 ± 1.1 kg/m3; mass density (293.15 K, 20000 kPa): 1109.18 ± 1.1 kg/m3; mass density (293.15 K, 25000 kPa): 1111.4 ± 1.2 kg/m3; mass density (293.15 K, 30000 kPa): 1113.56 ± 1.2 kg/m3; mass density (293.15 K, 35000 kPa): 1115.81 ± 1.2 kg/m3; mass density (293.15 K, 40000 kPa): 1117.82 ± 1.3 kg/m3; mass density (293.15 K, 45000 kPa): 1119.87 ± 1.3 kg/m3; mass density (293.15 K, 50000 kPa): 1121.88 ± 1.3 kg/m3; mass density (293.15 K, 55000 kPa): 1123.82 ± 1.4 kg/m3; mass density (293.15 K, 60000 kPa): 1125.67 ± 1.4 kg/m3; mass density (293.15 K, 65000 kPa): 1127.47 ± 1.4 kg/m3; mass density (298.15 K, 100 kPa): 1096.08 ± 1 kg/m3; mass density (298.15 K, 5000 kPa): 1098.54 ± 1.1 kg/m3; mass density (298.15 K, 10000 kPa): 1101.04 ± 1.1 kg/m3; mass density (298.15 K, 15000 kPa): 1103.47 ± 1.1 kg/m3; mass density (298.15 K, 20000 kPa): 1105.84 ± 1.1 kg/m3; mass density (298.15 K, 25000 kPa): 1108.07 ± 1.2 kg/m3; mass density (298.15 K, 30000 kPa): 1110.33 ± 1.2 kg/m3; mass density (298.15 K, 35000 kPa): 1112.49 ± 1.2 kg/m3; mass density (298.15 K, 40000 kPa): 1114.56 ± 1.3 kg/m3; mass density (298.15 K, 45000 kPa): 1116.65 ± 1.3 kg/m3; mass density (298.15 K, 50000 kPa): 1118.65 ± 1.3 kg/m3; mass density (298.15 K, 55000 kPa): 1120.63 ± 1.4 kg/m3; mass density (298.15 K, 60000 kPa): 1122.5 ± 1.4 kg/m3; mass density (298.15 K, 65000 kPa): 1124.52 ± 1.4 kg/m3; mass density (303.15 K, 100 kPa): 1092.83 ± 1 kg/m3; mass density (303.15 K, 5000 kPa): 1095.28 ± 1.1 kg/m3; mass density (303.15 K, 10000 kPa): 1097.84 ± 1.1 kg/m3; mass density (303.15 K, 15000 kPa): 1100.3 ± 1.1 kg/m3; mass density (303.15 K, 20000 kPa): 1102.65 ± 1.1 kg/m3; mass density (303.15 K, 25000 kPa): 1104.99 ± 1.2 kg/m3; mass density (303.15 K, 30000 kPa): 1107.32 ± 1.2 kg/m3; mass density (303.15 K, 35000 kPa): 1109.47 ± 1.2 kg/m3; mass density (303.15 K, 40000 kPa): 1111.6 ± 1.2 kg/m3; mass density (303.15 K, 45000 kPa): 1113.68 ± 1.3 kg/m3; mass density (303.15 K, 50000 kPa): 1115.8 ± 1.3 kg/m3; mass density (303.15 K, 55000 kPa): 1117.71 ± 1.3 kg/m3; mass density (303.15 K, 60000 kPa): 1119.7 ± 1.4 kg/m3; mass density (303.15 K, 65000 kPa): 1121.56 ± 1.4 kg/m3; mass density (308.15 K, 100 kPa): 1089.26 ± 1 kg/m3; mass density (308.15 K, 5000 kPa): 1091.74 ± 1.1 kg/m3; mass density (308.15 K, 10000 kPa): 1094.35 ± 1.1 kg/m3; mass density (308.15 K, 15000 kPa): 1096.91 ± 1.1 kg/m3; mass density (308.15 K, 20000 kPa): 1099.29 ± 1.1 kg/m3; mass density (308.15 K, 25000 kPa): 1101.65 ± 1.1 kg/m3; mass density (308.15 K, 30000 kPa): 1103.95 ± 1.2 kg/m3; mass density (308.15 K, 35000 kPa): 1106.18 ± 1.2 kg/m3; mass density (308.15 K, 40000 kPa): 1108.37 ± 1.2 kg/m3; mass density (308.15 K, 45000 kPa): 1110.56 ± 1.3 kg/m3; mass density (308.15 K, 50000 kPa): 1112.6 ± 1.3 kg/m3; mass density (308.15 K, 55000 kPa): 1114.63 ± 1.3 kg/m3; mass density (308.15 K, 60000 kPa): 1116.66 ± 1.4 kg/m3; mass density (308.15 K, 65000 kPa): 1118.6 ± 1.4 kg/m3; mass density (313.15 K, 100 kPa): 1085.88 ± 1 kg/m3; mass density (313.15 K, 5000 kPa): 1088.47 ± 1 kg/m3; mass density (313.15 K, 10000 kPa): 1091.09 ± 1.1 kg/m3; mass density (313.15 K, 15000 kPa): 1093.69 ± 1.1 kg/m3; mass density (313.15 K, 20000 kPa): 1096.09 ± 1.1 kg/m3; mass density (313.15 K, 25000 kPa): 1098.54 ± 1.1 kg/m3; mass density (313.15 K, 30000 kPa): 1100.84 ± 1.2 kg/m3; mass density (313.15 K, 35000 kPa): 1103.14 ± 1.2 kg/m3; mass density (313.15 K, 40000 kPa): 1105.37 ± 1.2 kg/m3; mass density (313.15 K, 45000 kPa): 1107.51 ± 1.2 kg/m3; mass density (313.15 K, 50000 kPa): 1109.66 ± 1.3 kg/m3; mass density (313.15 K, 55000 kPa): 1111.71 ± 1.3 kg/m3; mass density (313.15 K, 60000 kPa): 1113.7 ± 1.3 kg/m3; mass density (313.15 K, 65000 kPa): 1115.65 ± 1.4 kg/m3; mass density (318.15 K, 100 kPa): 1082.49 ± 1 kg/m3; mass density (318.15 K, 5000 kPa): 1085.16 ± 1 kg/m3; mass density (318.15 K, 10000 kPa): 1087.86 ± 1.1 kg/m3; mass density (318.15 K, 15000 kPa): 1090.4 ± 1.1 kg/m3; mass density (318.15 K, 20000 kPa): 1092.87 ± 1.1 kg/m3; mass density (318.15 K, 25000 kPa): 1095.34 ± 1.1 kg/m3; mass density (318.15 K, 30000 kPa): 1097.71 ± 1.2 kg/m3; mass density (318.15 K, 35000 kPa): 1100 ± 1.2 kg/m3; mass density (318.15 K, 40000 kPa): 1102.23 ± 1.2 kg/m3; mass density (318.15 K, 45000 kPa): 1104.4 ± 1.2 kg/m3; mass density (318.15 K, 50000 kPa): 1106.52 ± 1.3 kg/m3; mass density (318.15 K, 55000 kPa): 1108.63 ± 1.3 kg/m3; mass density (318.15 K, 60000 kPa): 1110.64 ± 1.3 kg/m3; mass density (318.15 K, 65000 kPa): 1112.69 ± 1.4 kg/m3; mass density (323.15 K, 100 kPa): 1079.26 ± 1 kg/m3; mass density (323.15 K, 5000 kPa): 1082.03 ± 1 kg/m3; mass density (323.15 K, 10000 kPa): 1084.69 ± 1.1 kg/m3; mass density (323.15 K, 15000 kPa): 1087.27 ± 1.1 kg/m3; mass density (323.15 K, 20000 kPa): 1089.69 ± 1.1 kg/m3; mass density (323.15 K, 25000 kPa): 1092.26 ± 1.1 kg/m3; mass density (323.15 K, 30000 kPa): 1094.65 ± 1.1 kg/m3; mass density (323.15 K, 35000 kPa): 1096.93 ± 1.2 kg/m3; mass density (323.15 K, 40000 kPa): 1099.23 ± 1.2 kg/m3; mass density (323.15 K, 45000 kPa): 1101.43 ± 1.2 kg/m3; mass density (323.15 K, 50000 kPa): 1103.63 ± 1.3 kg/m3; mass density (323.15 K, 55000 kPa): 1105.69 ± 1.3 kg/m3; mass density (323.15 K, 60000 kPa): 1107.78 ± 1.3 kg/m3; mass density (323.15 K, 65000 kPa): 1109.77 ± 1.4 kg/m3; mass density (328.15 K, 100 kPa): 1075.89 ± 0.99 kg/m3; mass density (328.15 K, 5000 kPa): 1078.67 ± 1 kg/m3; mass density (328.15 K, 10000 kPa): 1081.32 ± 1 kg/m3; mass density (328.15 K, 15000 kPa): 1083.91 ± 1.1 kg/m3; mass density (328.15 K, 20000 kPa): 1086.53 ± 1.1 kg/m3; mass density (328.15 K, 25000 kPa): 1089.05 ± 1.1 kg/m3; mass density (328.15 K, 30000 kPa): 1091.41 ± 1.1 kg/m3; mass density (328.15 K, 35000 kPa): 1093.82 ± 1.2 kg/m3; mass density (328.15 K, 40000 kPa): 1096.15 ± 1.2 kg/m3; mass density (328.15 K, 45000 kPa): 1098.38 ± 1.2 kg/m3; mass density (328.15 K, 50000 kPa): 1100.54 ± 1.2 kg/m3; mass density (328.15 K, 55000 kPa): 1102.61 ± 1.3 kg/m3; mass density (328.15 K, 60000 kPa): 1104.75 ± 1.3 kg/m3; mass density (328.15 K, 65000 kPa): 1106.82 ± 1.3 kg/m3; mass density (333.15 K, 100 kPa): 1072.64 ± 0.99 kg/m3; mass density (333.15 K, 5000 kPa): 1075.39 ± 1 kg/m3; mass density (333.15 K, 10000 kPa): 1078.24 ± 1 kg/m3; mass density (333.15 K, 15000 kPa): 1080.9 ± 1.1 kg/m3; mass density (333.15 K, 20000 kPa): 1083.46 ± 1.1 kg/m3; mass density (333.15 K, 25000 kPa): 1086.03 ± 1.1 kg/m3; mass density (333.15 K, 30000 kPa): 1088.48 ± 1.1 kg/m3; mass density (333.15 K, 35000 kPa): 1090.88 ± 1.1 kg/m3; mass density (333.15 K, 40000 kPa): 1093.31 ± 1.2 kg/m3; mass density (333.15 K, 45000 kPa): 1095.48 ± 1.2 kg/m3; mass density (333.15 K, 50000 kPa): 1097.71 ± 1.2 kg/m3; mass density (333.15 K, 55000 kPa): 1099.8 ± 1.3 kg/m3; mass density (333.15 K, 60000 kPa): 1101.97 ± 1.3 kg/m3; mass density (333.15 K, 65000 kPa): 1104.05 ± 1.3 kg/m3
